Results published in patent US7183324B2, “2,3,4-substituted cyclopentanones as therapeutic agents” (Allergan, Inc., priority 2004, dated 2007).

How the values were obtained:
hEP4/Gqs5 = biological target: T1, hEP4/Gqs5 (Homo sapiens, UniProt P35408); assay: FLIPR calcium signal, hEP4/Gqs5; assay type: cell-based; settings: HEK-293 (EBNA) cells, read-out: FUNCTIONAL EC50 HEP4
T1 construct: expressed in transfected cells; host or cells: HEK-293 (EBNA)
Experimental: (§1) HEK-293 (EBNA) cells, stably expressing one type or subtype of recombinant human prostaglandin receptors (prostaglandin receptors expressed: hDP/Gqs5; hEP1; hEP2/Gqs5; hEP3A/Gqi5; hEP4/Gqs5; hFP; hIP; hTP), were cultured in 100 mm culture dishes in high-glucose DMEM medium containing 10% fetal bovine serum, 2 mM 1-glutamine, 250 μg/ml geneticin (G418) and 200 μg/ml hygromycin B as selection markers, and 100 units/ml penicillin G, 100 μg/ml streptomycin and 0.25 μg/ml amphotericin B. • (b) Calcium Signal Studies on the FLIPR™
(§2) Cells were seeded at a density of 5×10^4 cells per well in Biocoat® Poly-D-lysine-coated black-wall, clear-bottom 96-well plates (Becton-Dickinson) and allowed to attach overnight in an incubator at 37° C. Cells were then washed two times with HBSS-HEPES buffer (Hanks Balanced Salt Solution without bicarbonate and phenol red, 20 mM HEPES, pH 7.4) using a Denley Cellwash plate washer (Labsystems). After 45 minutes of dye-loading in the dark, using the calcium-sensitive dye Fluo-4 AM at a final concentration of 2 μM, plates were washed four times with HBSS-HEPES buffer to remove excess dye leaving 100 μl in each well. Plates were re-equilibrated to 37° C. for a few minutes.
(§3) Cells were excited with an Argon laser at 488 nm, and emission was measured through a 510–570 nm bandwidth emission filter (FLIPR™, Molecular Devices, Sunnyvale, Calif.). Drug solution was added in a 50 μl volume to each well to give the desired final concentration. The peak increase in fluorescence intensity was recorded for each well. On each plate, four wells each served as negative (HBSS-HEPES buffer) and positive controls (standard agonists: BW245C (hDP); PGE2 (hEP1; hEP2/Gqs5; hEP3A/Gqi5; hEP4/Gqs5); PGF2α (hFP); carbacyclin (hIP); U46619 (hTP), depending on receptor). The peak fluorescence change in each drug-containing well was then expressed relative to the controls.
(§4) Compounds were tested in a high-throughput (HTS) or concentration-response (CoRe) format. In the HTS format, forty-four compounds per plate were examined in duplicates at a concentration of 10^−5 M. To generate concentration-response curves, four compounds per plate were tested in duplicates in a concentration range between 10^−5 and 10^−11 M. The duplicate values were averaged. In either, HTS or CoRe format each compound was tested on at least 3 separate plates using cells from different passages to give an n≧3.

hEP2/Gqs5 = biological target: T2, hEP2/Gqs5 (Homo sapiens, UniProt P43116); assay: FLIPR calcium signal, hEP2/Gqs5; assay type: cell-based; settings: HEK-293 (EBNA) cells, read-out: FUNCTIONAL EC50 HEP2
T2 construct: expressed in transfected cells; host or cells: HEK-293 (EBNA)
T2 sequence (P43116 whole entry): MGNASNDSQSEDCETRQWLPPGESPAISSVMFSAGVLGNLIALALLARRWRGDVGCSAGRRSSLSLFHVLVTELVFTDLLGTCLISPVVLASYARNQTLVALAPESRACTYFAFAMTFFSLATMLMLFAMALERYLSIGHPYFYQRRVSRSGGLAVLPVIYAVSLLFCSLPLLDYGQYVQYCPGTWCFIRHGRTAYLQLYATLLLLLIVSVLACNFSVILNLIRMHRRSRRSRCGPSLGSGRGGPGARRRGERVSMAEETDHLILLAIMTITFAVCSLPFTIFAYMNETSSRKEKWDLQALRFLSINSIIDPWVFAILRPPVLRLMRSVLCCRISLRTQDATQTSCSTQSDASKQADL
Experimental: as §1, §2, §3
Compounds were tested in a high-throughput (HTS) or concentration-response (CoRe) format. […]

hEP3A/Gqi5 = biological target: T3, hEP3A/Gqi5 (Homo sapiens, UniProt P43115); assay: FLIPR calcium signal, hEP3A/Gqi5; assay type: cell-based; settings: HEK-293 (EBNA) cells, read-out: FUNCTIONAL EC50 HEP3A
T3 construct: expressed in transfected cells; host or cells: HEK-293 (EBNA)
T3 sequence (P43115 1-390): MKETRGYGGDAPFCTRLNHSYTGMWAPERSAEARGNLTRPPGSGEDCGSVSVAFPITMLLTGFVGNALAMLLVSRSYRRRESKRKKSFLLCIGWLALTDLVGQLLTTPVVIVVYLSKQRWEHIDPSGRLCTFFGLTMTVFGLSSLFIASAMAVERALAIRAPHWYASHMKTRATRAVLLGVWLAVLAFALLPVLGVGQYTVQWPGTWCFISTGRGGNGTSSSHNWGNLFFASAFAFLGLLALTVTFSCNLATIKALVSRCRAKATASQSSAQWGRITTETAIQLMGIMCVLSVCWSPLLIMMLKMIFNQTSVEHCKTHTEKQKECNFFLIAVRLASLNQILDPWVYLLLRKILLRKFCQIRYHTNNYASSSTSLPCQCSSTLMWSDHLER
Experimental: as §1, §2, §3, §4

HEP4 = biological target: T4, HEP4 (Homo sapiens, UniProt P35408); assay: Radioligand binding, EP4 receptor; settings: [3H]PGE2 5 nM, HEK-293 membranes
T4 construct: expressed in transfected cells; host or cells: HEK-293
T4 sequence (P35408 whole entry): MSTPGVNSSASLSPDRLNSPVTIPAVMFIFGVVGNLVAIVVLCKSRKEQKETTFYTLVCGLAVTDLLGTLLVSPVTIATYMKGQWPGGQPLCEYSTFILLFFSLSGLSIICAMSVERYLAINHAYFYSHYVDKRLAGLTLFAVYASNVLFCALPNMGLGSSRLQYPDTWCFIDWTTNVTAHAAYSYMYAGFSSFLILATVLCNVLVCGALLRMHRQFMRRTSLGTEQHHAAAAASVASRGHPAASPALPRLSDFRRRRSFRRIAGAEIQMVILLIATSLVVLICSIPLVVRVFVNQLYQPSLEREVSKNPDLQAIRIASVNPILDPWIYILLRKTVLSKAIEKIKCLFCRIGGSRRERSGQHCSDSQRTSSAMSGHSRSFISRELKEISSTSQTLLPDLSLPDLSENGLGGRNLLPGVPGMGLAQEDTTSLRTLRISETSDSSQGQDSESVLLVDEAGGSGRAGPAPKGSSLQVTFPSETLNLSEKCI
Experimental: (§5) HEK-293 cells stably expressing the human or feline FP receptor, or EP1, EP2, or EP4 receptors were washed with TME buffer, scraped from the bottom of the flasks, and homogenized for 30 sec using a Brinkman PT 10/35 polytron. TME buffer was added to achieve a final 40 ml volume in the centrifuge tubes (the composition of TME is 100 mM TRIS base, 20 mM MgCl2, […]; 10N HCl is added to achieve a pH of 7.4).
(§6) The cell homogenate was centrifuged at 19000 r.p.m. for 20 min at 4° C. using a Beckman Ti-60 rotor. The resultant pellet was resuspended in TME buffer to give a final 1 mg/ml protein concentration, as determined by Biorad assay. Radioligand binding competition assays vs. [^3H-]17-phenyl PGF2α (5 nM) were performed in a 100 μl volume for 60 min. Binding reactions were started by adding plasma membrane fraction. The reaction was terminated by the addition of 4 ml ice-cold TRIS-HCl buffer and rapid filtration through glass fiber GF/B filters using a Brandel cell harvester. The filters were washed 3 times with ice-cold buffer and oven dried for one hour. Non-specific binding was determined with 10 uM unlabeled 17-phenyl PGF2α.
(§7) [^3H-] PGE2 (5 nM; specific activity 180 Ci mmol) was used as the radioligand for EP receptors. Binding studies employing EP1, EP2, EP3, EP4 were performed in duplicate in at least three separate experiments. A 200 μl assay volume was used. Incubations were for 60 min at 25° C. and were terminated by the addition of 4 ml of ice-cold 50 mM TRIS-HCl, followed by rapid filtration through Whatman GF/B filters and three additional 4 ml washes in a cell harvester (Brandel). Non-specific binding determined with 10^−5M of unlabeled PGE2.

hEP1 = biological target: T5, hEP1 (Homo sapiens, UniProt P34995); assay: FLIPR calcium signal, hEP1; assay type: cell-based; settings: HEK-293 (EBNA) cells, read-out: FUNCTIONAL EC50 HEP1
T5 construct: expressed in transfected cells; host or cells: HEK-293 (EBNA)
T5 sequence (P34995 1-402): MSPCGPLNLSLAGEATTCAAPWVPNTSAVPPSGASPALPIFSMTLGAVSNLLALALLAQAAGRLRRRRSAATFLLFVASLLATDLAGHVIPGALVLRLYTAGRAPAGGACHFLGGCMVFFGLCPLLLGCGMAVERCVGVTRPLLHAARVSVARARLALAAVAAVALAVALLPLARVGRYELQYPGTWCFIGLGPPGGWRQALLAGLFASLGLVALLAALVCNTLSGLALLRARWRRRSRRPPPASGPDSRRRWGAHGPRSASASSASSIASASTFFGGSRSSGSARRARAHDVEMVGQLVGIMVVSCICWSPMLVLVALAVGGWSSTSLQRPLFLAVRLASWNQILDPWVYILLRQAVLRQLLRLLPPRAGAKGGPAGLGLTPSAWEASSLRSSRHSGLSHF
Experimental: as §1
(§8) Cells were seeded at a density of 5×10^4 cells per well in Biocoat® Poly-D-lysine-coated black-wall, clear-bottom 96-well plates (Becton-Dickinson) and allowed to attach overnight in an incubator at 37° C. Cells were then washed two times with HBSS-HEPES buffer (Hanks Balanced Salt Solution without bicarbonate and phenol red, 20 mM HEPES, pH 7.4) using a Denley Cellwash plate washer (Labsystems). […]
(§9) Cells were excited with an Argon laser at 488 nm, and emission was measured through a 510–570 nm bandwidth emission filter (FLIPR™, Molecular Devices, Sunnyvale, Calif.). […] The peak increase in fluorescence intensity was recorded for each well. […] The peak fluorescence change in each drug-containing well was then expressed relative to the controls. […]

HEP2 = biological target: T6, HEP2 (Homo sapiens, UniProt P43116); assay: Radioligand binding, EP2 receptor; settings: [3H]PGE2 5 nM, HEK-293 membranes
T6 construct: expressed in transfected cells; host or cells: HEK-293
T6 sequence (P43116 whole entry): as the sequence (P43116 whole entry) above
Experimental: as §5, §6, §7

hDP/Gqs5 = biological target: T7, hDP/Gqs5 (Homo sapiens, UniProt Q13258); assay: FLIPR calcium signal, hDP/Gqs5; assay type: cell-based; settings: HEK-293 (EBNA) cells, read-out: FUNCTIONAL EC50 HDP
T7 construct: expressed in transfected cells; host or cells: HEK-293 (EBNA)
T7 sequence (Q13258 1-359): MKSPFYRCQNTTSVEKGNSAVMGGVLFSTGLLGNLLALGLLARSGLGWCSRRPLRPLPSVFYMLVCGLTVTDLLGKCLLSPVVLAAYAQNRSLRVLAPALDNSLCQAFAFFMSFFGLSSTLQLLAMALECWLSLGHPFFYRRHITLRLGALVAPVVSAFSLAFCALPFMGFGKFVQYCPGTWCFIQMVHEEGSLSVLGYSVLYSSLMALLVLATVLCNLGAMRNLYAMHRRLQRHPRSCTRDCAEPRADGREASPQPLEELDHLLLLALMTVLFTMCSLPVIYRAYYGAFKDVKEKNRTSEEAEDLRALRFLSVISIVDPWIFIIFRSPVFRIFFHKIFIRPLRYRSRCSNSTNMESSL
Experimental: as §1, §8, §9

hIP = biological target: T8, hIP (Homo sapiens, UniProt P43119); assay: FLIPR calcium signal, hIP; assay type: cell-based; settings: HEK-293 (EBNA) cells, read-out: FUNCTIONAL EC50 HIP
T8 construct: expressed in transfected cells; host or cells: HEK-293 (EBNA)
T8 sequence (P43119 whole entry): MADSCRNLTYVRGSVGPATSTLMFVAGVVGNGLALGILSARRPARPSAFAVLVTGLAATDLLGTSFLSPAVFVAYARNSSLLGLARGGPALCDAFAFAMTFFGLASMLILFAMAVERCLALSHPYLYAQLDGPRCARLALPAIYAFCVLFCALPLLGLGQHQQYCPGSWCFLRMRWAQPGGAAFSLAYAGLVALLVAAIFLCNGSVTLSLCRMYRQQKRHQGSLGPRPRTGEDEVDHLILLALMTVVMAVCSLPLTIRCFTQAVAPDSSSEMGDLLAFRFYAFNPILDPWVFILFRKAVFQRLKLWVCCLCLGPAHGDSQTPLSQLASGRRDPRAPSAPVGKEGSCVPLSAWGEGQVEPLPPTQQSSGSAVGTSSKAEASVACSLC
Experimental: as §1, §8, §9

hTP = biological target: T9, hTP (Homo sapiens, UniProt P21731); assay: FLIPR calcium signal, hTP; assay type: cell-based; settings: HEK-293 (EBNA) cells, read-out: FUNCTIONAL EC50 HTP
T9 construct: expressed in transfected cells; host or cells: HEK-293 (EBNA)
T9 sequence (P21731 1-343): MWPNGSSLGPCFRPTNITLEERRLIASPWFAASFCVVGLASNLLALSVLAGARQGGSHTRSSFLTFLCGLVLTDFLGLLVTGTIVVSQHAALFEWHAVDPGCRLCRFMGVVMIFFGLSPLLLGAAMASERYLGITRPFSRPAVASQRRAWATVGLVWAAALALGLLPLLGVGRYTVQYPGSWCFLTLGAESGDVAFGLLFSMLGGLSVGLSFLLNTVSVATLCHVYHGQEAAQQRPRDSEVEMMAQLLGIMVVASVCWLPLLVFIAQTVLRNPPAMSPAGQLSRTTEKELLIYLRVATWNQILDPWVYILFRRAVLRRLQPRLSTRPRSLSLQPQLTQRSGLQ
Experimental: as §1, §2, §3, §4

HEP3D = biological target: T10, HEP3D (Homo sapiens, UniProt P43115); assay: Radioligand binding, EP3 receptor; settings: [3H]PGE2 5 nM
T10 sequence (P43115 1-374 isoform P43115-4): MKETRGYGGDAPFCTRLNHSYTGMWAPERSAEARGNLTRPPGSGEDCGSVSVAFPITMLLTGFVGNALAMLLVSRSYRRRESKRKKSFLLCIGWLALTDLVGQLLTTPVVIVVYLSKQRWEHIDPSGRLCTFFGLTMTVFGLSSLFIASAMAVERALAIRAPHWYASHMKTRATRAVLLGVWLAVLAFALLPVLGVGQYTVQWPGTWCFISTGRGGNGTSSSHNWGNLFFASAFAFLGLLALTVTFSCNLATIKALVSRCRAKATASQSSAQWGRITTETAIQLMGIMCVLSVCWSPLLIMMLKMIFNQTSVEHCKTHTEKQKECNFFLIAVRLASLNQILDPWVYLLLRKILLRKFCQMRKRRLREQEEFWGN
Experimental: as §5, §6, §7

T1 sequence (P35408 whole entry): as the sequence (P35408 whole entry) above

Question: What does the source list for `CCCCC[C@H](O)/C=C/[C@H]1CCC(=O)[C@@H]1SCCCSCC(=O)O` [{3-[(1R,2R)-2-((E)-(S)-3-Hydroxy-oct-1-enyl)-5-oxo-cyclopentylsulfanyl]-propylsulfanyl}-acetic acid]?
Answer: EC50 (hEP4/Gqs5): 1.6 nM; EC50 (hEP2/Gqs5): 1220 nM; EC50 (hEP3A/Gqi5): 16 nM; IC50 (HEP4): 20 nM; EC50 (hEP1): > 10000 nM; IC50 (HEP2): 2200 nM; EC50 (hDP/Gqs5): > 10000 nM

Question: Which results are given for `COC(=O)CSCCCS[C@H]1C(=O)C[C@@H](CO)[C@@H]1/C=C/C(O)CCc1ccc2ccccc2c1` (single isomer, unassigned) [drawing 39]?
Answer: EC50 (hEP4/Gqs5): 1860 nM; IC50 (HEP4): 140 nM; EC50 (hIP): > 10000 nM

Question: Which EC50 (hEP4/Gqs5) does the source give for `O=C(O)CSCCCS[C@H]1C(=O)CC[C@@H]1/C=C/C(O)Cc1csc2ccccc12` (single isomer, unassigned) [drawing 56, {3-[2-(4-Benzo[b]thiophen-3-yl-3-hydroxy-but-1-enyl)-5-oxo-cyclopentylsulfanyl]-propylsulfanyl}-acetic acid] here?
Answer: The EC50 was 6.8 nM.

Question: And the EC50 (hTP)?
Answer: Its EC50 is over 10000 nM.

Question: And the EC50 (hEP2/Gqs5)?
Answer: Its EC50 is over 10000 nM.

Question: And the EC50 (hEP3A/Gqi5)?
Answer: Its EC50 is over 10000 nM.

Question: What about the IC50 (HEP2) of the same molecule?
Answer: Its IC50 is 3500 nM.

Question: And the IC50 (HEP3D)?
Answer: Its IC50 is over 10000 nM.
